Measured values taken from ChEMBL document CHEMBL4000195, “Design and synthesis of novel 7-aminosubstituted pyrido[2,3-b]pyrazines exhibiting anti-breast cancer activity” (Eur J Med Chem, 2017).
Activity calls are given as the source filed them. The calls are words filed in the database; no cut-off is given here.

Columns and labels:
[1] = system: MDA-MB-231; assay: Cytotoxicity against human MDA-MB-231 cells at 5 uM by MTT assay; format: functional
[2] = system: HCC1954; assay: Cytotoxicity against human HCC1954 cells at 5 uM by MTT assay; format: functional
[3] = system: MCF7; assay: Cytotoxicity against human MCF7 cells at 10 uM by MTT assay; format: functional
[4] = system: MCF7; assay: Cytotoxicity against human MCF7 cells at 5 uM by MTT assay; format: functional
[5] = system: T47D; assay: Cytotoxicity against human T47D cells at 5 uM by MTT assay; format: functional
[6] = system: MDA-MB-231; assay: Cytotoxicity against human MDA-MB-231 cells at 10 uM by MTT assay; format: functional
[7] = system: HCC1954; assay: Cytotoxicity against human HCC1954 cells at 10 uM by MTT assay; format: functional
[8] = system: T47D; assay: Cytotoxicity against human T47D cells at 10 uM by MTT assay; format: functional
[9] = target: Mast/stem cell growth factor receptor Kit (Homo sapiens) (UniProt P10721); assay: Inhibition of recombinant human GST-tagged KIT (544-end residues) transphosphorylation activity expressed in baculovirus infected Sf9 cells using poly[Glu:Tyr] (4:1) as substrate after 60 mins
[10] = species on record: Sus scrofa; assay: Inhibition of pig CK1delta/epsilon
[11] = target: Aurora kinase B/Inner centromere protein (Homo sapiens) (UniProt Q96GD4+Q9NQS7); assay: Inhibition of human AURKB/INCENP; format: protein-complex assay
[12] = system: SK-BR-3; assay: Cytotoxicity against human SKBR3 cells by MTT assay; format: functional, cell-based
[13] = target: Glycogen synthase kinase-3 (Sus scrofa) (UniProt B2LUN4+I6LNT8); assay: Inhibition of pig GSK3alpha/beta using GS-1 as substrate in presence of [gamma33P]ATP after 30 mins by scintillation counting method
[14] = target: Receptor-interacting serine/threonine-protein kinase 3 (Homo sapiens) (UniProt Q9Y572); assay: Inhibition of human RIPK3
[15] = system: HCC1954; assay: Cytotoxicity against human HCC1954 cells by MTT assay; format: functional, cell-based
[16] = target: T1, Serine/threonine-protein kinase haspin (Homo sapiens) (UniProt Q8TF76); assay: Inhibition of human HASPIN
T1 sequence (whole entry): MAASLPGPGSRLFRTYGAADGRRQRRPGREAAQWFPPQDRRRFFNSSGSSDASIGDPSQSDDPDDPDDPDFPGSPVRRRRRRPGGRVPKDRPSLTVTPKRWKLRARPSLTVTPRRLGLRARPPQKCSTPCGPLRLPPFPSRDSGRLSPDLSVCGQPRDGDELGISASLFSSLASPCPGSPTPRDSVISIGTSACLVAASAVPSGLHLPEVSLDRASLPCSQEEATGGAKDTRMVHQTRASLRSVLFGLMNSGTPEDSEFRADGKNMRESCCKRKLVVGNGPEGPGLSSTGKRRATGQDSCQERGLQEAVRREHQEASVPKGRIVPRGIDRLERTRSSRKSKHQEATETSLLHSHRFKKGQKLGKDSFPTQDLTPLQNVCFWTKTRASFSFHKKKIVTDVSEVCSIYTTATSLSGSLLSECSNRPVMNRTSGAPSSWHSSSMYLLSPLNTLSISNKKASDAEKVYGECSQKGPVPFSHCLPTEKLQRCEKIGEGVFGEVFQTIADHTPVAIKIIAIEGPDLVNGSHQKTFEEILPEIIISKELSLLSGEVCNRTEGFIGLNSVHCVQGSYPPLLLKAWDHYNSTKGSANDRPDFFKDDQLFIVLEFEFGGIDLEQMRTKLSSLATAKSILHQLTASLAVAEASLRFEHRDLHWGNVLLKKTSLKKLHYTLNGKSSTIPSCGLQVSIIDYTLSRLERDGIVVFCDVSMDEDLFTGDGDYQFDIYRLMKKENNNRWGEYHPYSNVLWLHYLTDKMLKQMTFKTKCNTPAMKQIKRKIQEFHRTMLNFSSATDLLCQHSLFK

[17] = target: Vascular endothelial growth factor receptor 2 (Homo sapiens) (UniProt P35968); assay: Inhibition of recombinant human GST-tagged VEGFR-2 (789-end residues) transphosphorylation activity expressed in baculovirus infected Sf9 cells using poly[Glu:Tyr] (4:1) as substrate after 60 mins
[18] = target: Cyclin-dependent kinase 5/CDK5 activator 1 (Homo sapiens) (UniProt Q00535+Q15078); assay: Inhibition of human CDK5/p25 using histone H1 as substrate in presence of [gamma33P]ATP after 30 mins by scintillation counting method; format: protein-complex assay
[19] = target: Dual specificity tyrosine-phosphorylation-regulated kinase 1A (Rattus norvegicus) (UniProt Q63470); assay: Inhibition of rat DYRK1A using myelin basic protein as substrate in presence of [gamma33P]ATP after 30 mins by scintillation counting method
[20] = system: MDA-MB-231; assay: Cytotoxicity against human MDA-MB-231 cells by MTT assay; format: functional, cell-based
[21] = system: MCF7; assay: Cytotoxicity against human MCF7 cells by MTT assay; format: functional, cell-based
[22] = target: Phosphatidylinositol 4,5-bisphosphate 3-kinase catalytic subunit alpha isoform (Homo sapiens, UniProt P42336); assay: Inhibition of PI3Kalpha catalytic domain (unknown origin) using PIP2 liposomes as substrate in presence of biotin-labeled PIP3 and GST-GRP1-PH by streptavidin-HRP based assays
[23] = system: T47D; assay: Cytotoxicity against human T47D cells by MTT assay; format: functional, cell-based
[24] = target: Platelet-derived growth factor receptor beta (Homo sapiens) (UniProt P09619); assay: Inhibition of recombinant human GST-tagged PDGFR-beta (557-end residues) transphosphorylation activity expressed in baculovirus infected Sf9 cells using poly[Glu:Tyr] (4:1) as substrate after 60 mins
[25] = target: Dual specificity protein kinase CLK1 (Mus musculus) (UniProt P22518); assay: Inhibition of mouse CLK1
[26] = target: Receptor-type tyrosine-protein kinase FLT3 (Homo sapiens) (UniProt P36888); assay: Inhibition of recombinant human GST-tagged FLT3 (571 to 993 residues) transphosphorylation activity expressed in baculovirus infected Sf9 cells using poly[Glu:Tyr] (4:1) as substrate after 60 mins

Chain of Platelet-derived growth factor receptor beta (Homo sapiens) (P09619 whole entry): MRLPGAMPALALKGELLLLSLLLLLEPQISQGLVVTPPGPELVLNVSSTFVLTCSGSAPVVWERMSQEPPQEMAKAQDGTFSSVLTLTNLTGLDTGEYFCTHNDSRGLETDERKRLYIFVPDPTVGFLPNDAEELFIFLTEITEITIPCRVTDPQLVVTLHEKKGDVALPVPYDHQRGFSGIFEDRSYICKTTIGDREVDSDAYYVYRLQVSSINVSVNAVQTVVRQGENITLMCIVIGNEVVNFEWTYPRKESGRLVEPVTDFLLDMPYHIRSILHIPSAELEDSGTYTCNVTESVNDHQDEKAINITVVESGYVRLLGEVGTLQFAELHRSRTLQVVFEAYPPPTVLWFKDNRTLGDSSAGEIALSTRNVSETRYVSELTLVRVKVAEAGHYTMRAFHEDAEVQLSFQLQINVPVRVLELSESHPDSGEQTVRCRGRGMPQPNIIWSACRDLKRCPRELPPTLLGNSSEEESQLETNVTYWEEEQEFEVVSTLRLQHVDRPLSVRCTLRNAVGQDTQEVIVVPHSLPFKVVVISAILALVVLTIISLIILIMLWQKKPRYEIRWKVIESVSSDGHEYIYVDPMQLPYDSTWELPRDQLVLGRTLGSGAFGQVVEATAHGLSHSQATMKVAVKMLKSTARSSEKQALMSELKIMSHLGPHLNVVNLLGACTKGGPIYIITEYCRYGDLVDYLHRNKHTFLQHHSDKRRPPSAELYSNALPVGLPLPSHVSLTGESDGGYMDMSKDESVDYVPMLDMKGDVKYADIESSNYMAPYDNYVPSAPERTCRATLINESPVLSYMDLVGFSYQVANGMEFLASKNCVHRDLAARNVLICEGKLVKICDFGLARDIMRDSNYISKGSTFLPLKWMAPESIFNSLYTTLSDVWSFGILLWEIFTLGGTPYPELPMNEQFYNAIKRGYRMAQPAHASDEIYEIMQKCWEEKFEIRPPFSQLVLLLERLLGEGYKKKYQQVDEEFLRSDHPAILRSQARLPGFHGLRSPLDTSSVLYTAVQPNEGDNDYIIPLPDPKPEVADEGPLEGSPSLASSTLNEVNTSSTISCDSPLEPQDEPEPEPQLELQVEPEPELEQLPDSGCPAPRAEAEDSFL
Chain of Receptor-interacting serine/threonine-protein kinase 3 (Homo sapiens) (Q9Y572 whole entry, looked up): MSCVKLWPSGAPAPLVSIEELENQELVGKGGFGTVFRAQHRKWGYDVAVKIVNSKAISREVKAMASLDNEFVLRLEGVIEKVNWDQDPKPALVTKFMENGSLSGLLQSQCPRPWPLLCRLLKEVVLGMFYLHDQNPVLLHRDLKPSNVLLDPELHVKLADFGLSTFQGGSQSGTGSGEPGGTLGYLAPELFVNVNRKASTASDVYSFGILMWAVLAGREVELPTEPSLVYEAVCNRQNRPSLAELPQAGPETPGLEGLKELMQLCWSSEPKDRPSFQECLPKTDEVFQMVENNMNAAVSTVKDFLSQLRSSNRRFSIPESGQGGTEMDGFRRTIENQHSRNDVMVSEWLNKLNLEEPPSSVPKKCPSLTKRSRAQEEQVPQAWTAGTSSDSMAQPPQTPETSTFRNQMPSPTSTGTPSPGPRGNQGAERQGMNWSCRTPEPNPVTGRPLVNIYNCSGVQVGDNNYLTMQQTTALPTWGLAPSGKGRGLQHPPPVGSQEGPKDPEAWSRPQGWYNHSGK
Chain of Phosphatidylinositol 4,5-bisphosphate 3-kinase catalytic subunit alpha isoform (P42336 whole entry, the tested form may be a part, canonical isoform): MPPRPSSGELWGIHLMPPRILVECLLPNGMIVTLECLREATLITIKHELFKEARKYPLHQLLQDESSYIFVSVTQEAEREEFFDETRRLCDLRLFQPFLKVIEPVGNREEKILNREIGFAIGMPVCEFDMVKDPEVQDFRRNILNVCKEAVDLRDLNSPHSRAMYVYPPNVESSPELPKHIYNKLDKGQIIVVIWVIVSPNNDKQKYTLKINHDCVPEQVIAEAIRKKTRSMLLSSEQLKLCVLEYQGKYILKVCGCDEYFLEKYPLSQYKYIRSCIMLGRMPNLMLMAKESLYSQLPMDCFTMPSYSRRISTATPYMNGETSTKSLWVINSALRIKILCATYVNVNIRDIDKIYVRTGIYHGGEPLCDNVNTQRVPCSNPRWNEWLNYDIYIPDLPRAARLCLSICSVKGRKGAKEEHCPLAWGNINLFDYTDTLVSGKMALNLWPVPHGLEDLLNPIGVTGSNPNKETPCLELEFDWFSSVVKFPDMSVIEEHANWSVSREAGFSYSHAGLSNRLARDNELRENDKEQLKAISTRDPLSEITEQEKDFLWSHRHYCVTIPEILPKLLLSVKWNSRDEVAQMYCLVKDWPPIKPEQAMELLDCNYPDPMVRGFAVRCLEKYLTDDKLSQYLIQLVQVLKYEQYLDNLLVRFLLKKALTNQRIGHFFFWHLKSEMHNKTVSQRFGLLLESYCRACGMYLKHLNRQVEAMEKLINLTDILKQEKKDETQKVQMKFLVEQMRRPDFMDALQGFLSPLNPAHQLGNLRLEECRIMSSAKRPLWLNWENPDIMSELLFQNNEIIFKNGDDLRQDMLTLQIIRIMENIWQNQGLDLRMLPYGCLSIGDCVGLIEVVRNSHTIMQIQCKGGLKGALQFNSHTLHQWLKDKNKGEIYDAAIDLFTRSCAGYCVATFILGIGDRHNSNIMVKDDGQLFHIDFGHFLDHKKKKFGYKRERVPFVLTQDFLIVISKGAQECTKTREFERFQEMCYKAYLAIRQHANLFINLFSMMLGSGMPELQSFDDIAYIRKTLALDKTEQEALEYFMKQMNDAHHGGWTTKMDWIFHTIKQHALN
Chain of Vascular endothelial growth factor receptor 2 (Homo sapiens) (P35968 whole entry): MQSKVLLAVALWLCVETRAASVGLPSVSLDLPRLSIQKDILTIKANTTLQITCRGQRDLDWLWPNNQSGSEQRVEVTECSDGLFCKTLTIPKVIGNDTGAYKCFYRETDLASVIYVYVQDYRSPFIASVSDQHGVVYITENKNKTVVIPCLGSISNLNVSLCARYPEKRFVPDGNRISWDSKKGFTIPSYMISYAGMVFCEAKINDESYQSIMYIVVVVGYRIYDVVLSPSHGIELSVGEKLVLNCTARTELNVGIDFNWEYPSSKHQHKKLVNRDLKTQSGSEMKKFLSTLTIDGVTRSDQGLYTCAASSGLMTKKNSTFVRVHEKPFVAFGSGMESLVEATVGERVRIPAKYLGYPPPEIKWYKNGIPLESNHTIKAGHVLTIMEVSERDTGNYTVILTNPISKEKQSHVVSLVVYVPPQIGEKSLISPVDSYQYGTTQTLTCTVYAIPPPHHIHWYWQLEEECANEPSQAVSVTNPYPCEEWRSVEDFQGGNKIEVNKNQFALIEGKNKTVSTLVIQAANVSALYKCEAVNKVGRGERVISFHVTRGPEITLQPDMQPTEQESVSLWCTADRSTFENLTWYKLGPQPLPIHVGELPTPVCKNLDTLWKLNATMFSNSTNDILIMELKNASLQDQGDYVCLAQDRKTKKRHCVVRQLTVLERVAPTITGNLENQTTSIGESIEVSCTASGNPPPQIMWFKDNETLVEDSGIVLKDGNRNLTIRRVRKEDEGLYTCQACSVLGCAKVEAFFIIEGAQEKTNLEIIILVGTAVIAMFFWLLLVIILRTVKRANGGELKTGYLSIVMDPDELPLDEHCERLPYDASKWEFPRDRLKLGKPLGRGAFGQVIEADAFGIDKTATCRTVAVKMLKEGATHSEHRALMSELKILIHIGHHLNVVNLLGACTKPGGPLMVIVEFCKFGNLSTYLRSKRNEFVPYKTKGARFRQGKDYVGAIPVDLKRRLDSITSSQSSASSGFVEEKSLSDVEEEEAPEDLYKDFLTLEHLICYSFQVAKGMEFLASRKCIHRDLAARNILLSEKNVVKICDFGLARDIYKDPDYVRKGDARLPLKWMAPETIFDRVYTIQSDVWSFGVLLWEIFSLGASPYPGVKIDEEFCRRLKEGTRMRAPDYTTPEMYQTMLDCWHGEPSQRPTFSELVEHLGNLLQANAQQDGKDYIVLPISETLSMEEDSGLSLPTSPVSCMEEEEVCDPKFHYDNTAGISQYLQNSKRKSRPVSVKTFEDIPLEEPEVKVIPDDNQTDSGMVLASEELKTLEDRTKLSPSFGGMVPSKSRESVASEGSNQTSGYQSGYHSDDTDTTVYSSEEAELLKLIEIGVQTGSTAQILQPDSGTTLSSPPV
Chain of Dual specificity protein kinase CLK1 (Mus musculus) (P22518 whole entry, looked up, the tested form may be a part): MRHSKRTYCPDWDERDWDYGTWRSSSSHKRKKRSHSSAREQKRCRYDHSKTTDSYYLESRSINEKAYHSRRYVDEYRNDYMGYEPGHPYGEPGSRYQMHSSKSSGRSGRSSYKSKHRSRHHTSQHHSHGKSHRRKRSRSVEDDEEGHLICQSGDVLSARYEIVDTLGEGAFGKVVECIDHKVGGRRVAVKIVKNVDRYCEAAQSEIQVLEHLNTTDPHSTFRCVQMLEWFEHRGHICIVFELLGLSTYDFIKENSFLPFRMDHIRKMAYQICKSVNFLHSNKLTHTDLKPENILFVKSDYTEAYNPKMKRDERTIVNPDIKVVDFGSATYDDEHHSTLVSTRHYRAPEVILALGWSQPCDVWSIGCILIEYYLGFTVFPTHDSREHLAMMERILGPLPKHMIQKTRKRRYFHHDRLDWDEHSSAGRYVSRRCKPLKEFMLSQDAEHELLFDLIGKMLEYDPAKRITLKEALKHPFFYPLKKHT
Chain of Cyclin-dependent kinase 5/CDK5 activator 1 (Homo sapiens) (Q00535 whole entry): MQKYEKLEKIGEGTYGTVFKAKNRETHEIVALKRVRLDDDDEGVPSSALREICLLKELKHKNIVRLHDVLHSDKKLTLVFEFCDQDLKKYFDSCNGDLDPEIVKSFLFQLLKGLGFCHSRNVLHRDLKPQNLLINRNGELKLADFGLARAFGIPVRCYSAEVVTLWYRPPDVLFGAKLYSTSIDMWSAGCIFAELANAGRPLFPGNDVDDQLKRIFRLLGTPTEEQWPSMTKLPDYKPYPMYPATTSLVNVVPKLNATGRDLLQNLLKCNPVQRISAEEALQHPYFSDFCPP
Chain of Cyclin-dependent kinase 5/CDK5 activator 1 (Homo sapiens) (Q15078 99-307 partner limits assumed): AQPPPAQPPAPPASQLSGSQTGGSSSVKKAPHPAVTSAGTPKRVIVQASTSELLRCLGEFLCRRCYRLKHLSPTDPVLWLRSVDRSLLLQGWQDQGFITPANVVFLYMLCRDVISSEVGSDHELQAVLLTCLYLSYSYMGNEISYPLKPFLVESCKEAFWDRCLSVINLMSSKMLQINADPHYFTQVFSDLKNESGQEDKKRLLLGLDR

COc1cc(C(=O)Nc2cc3nccnc3nc2C)cc(OC)c1OC
Activity [1]: <50% | Activity [2]: <50% | Activity [3]: <50% | Activity [4]: <50% | Activity [5]: <50% | Activity [6]: <50% | Activity [7]: <50% | Activity [8]: <50%

Cc1nc2nc(Sc3ccccc3)cnc2cc1NC(=O)Nc1ccc(F)c(Cl)c1
Activity [1]: <50% | Activity [2]: <50% | Activity [3]: <50% | Activity [4]: <50% | Activity [5]: <50% | Activity [6]: <50% | Activity [7]: <50% | Activity [8]: <50%

Cc1nc2nc(Sc3ccccc3)cnc2cc1NC(=O)CN1CCN(C)CC1
Activity [1]: <50% | Activity [2]: <50% | Activity [3]: <50% | Activity [4]: <50% | Activity [5]: <50% | Activity [6]: <50% | Activity [7]: <50% | Activity [8]: <50%

Cc1nc2nccnc2cc1NC(=O)CN(C)C
Activity [1]: <50% | Activity [2]: <50% | Activity [3]: <50% | Activity [4]: <50% | Activity [5]: <50% | Activity [6]: <50% | Activity [7]: <50% | Activity [8]: <50%

Cc1nc2nc(Sc3ccccc3)cnc2cc1NC(=O)c1ccccc1C(F)(F)F
Activity [1]: <50% | Activity [2]: <50% | Activity [3]: <50% | Activity [4]: <50% | Activity [5]: <50% | Activity [6]: <50% | Activity [7]: <50% | Activity [8]: <50%

Cc1nc2nc(Sc3ccccc3)cnc2cc1NC(=O)c1ccc([N+](=O)[O-])cc1
Activity [1]: <50% | Activity [2]: <50% | Activity [3]: <50% | Activity [4]: <50% | Activity [5]: <50% | Activity [6]: <50% | Activity [7]: <50% | Activity [8]: <50%

COc1cc(C(=O)Nc2cc3ncc(Sc4ccccc4)nc3nc2C)cc(OC)c1OC
Activity [1]: <50% | Activity [2]: <50% | Activity [3]: <50% | Activity [4]: <50% | Activity [5]: <50% | Activity [6]: <50% | Activity [7]: <50% | Activity [8]: <50%

Cc1nc2nccnc2cc1NC(=O)CN1CCN(C)CC1
Activity [1]: <50% | Activity [2]: <50% | Activity [3]: <50% | Activity [4]: <50% | Activity [5]: <50% | Activity [6]: <50% | Activity [7]: <50% | Activity [8]: <50%

Cc1nc2nc(Sc3ccccc3)cnc2cc1N
Activity [1]: <50% | Activity [2]: <50% | Activity [3]: <50% | Activity [4]: <50% | Activity [5]: <50% | Activity [6]: <50% | Activity [7]: <50% | Activity [8]: <50%

Cc1ccc(C(=O)Nc2cc3ncc(Sc4ccccc4)nc3nc2C)cc1
Activity [1]: <50% | Activity [2]: <50% | Activity [3]: <50% | Activity [4]: <50% | Activity [5]: <50% | Activity [6]: <50% | Activity [7]: <50% | Activity [8]: <50%

Cc1nc2nc(Sc3ccccc3)cnc2cc1NC(=O)Nc1cccc(C(F)(F)F)c1
Activity [1]: <50% | Activity [2]: <50% | Activity [3]: <50% | Activity [4]: <50% | Activity [5]: <50% | Activity [6]: <50% | Activity [7]: <50% | Activity [8]: <50%

Cc1nc2nccnc2cc1NC(=O)c1ccc([N+](=O)[O-])cc1
Activity [1]: <50% | Activity [2]: <50% | Activity [3]: <50% | Activity [4]: <50% | Activity [5]: <50% | Activity [6]: <50% | Activity [7]: <50% | Activity [8]: <50%

Cc1ccc(C(=O)Nc2cc3nccnc3nc2C)cc1
Activity [1]: <50% | Activity [2]: <50% | Activity [3]: <50% | Activity [4]: <50% | Activity [5]: <50% | Activity [6]: <50% | Activity [7]: <50% | Activity [8]: <50%

Cc1nc2nccnc2cc1NC(=O)c1ccccc1
Activity [1]: <50% | Activity [2]: <50% | Activity [3]: <50% | Activity [4]: <50% | Activity [5]: <50% | Activity [6]: <50% | Activity [7]: <50% | Activity [8]: <50%

Cc1nc2nc(Sc3ccccc3)cnc2cc1NC(=O)Nc1ccc(F)c([N+](=O)[O-])c1
Activity [1]: <50% | Activity [2]: <50% | Activity [3]: <50% | Activity [4]: <50% | Activity [5]: <50% | Activity [6]: <50% | Activity [7]: <50% | Activity [8]: <50%

Cc1nc2nc(Sc3ccccc3)cnc2cc1NC(=O)c1cccc(C(F)(F)F)c1
Activity [1]: <50% | Activity [2]: <50% | Activity [3]: <50% | Activity [4]: <50% | Activity [5]: <50% | Activity [6]: <50% | Activity [7]: <50% | Activity [8]: <50%

Cc1nc2nc(Sc3ccccc3)cnc2cc1NC(=O)CN(C)C
Activity [1]: <50% | Activity [2]: <50% | Activity [3]: <50% | Activity [4]: <50% | Activity [5]: <50% | Activity [6]: <50% | Activity [7]: <50% | Activity [8]: <50%

CSc1ccc(NC(=O)Nc2cc3ncc(Sc4ccccc4)nc3nc2C)cc1
Activity [1]: <50% | Activity [2]: <50% | Activity [3]: <50% | Activity [4]: <50% | Activity [5]: <50% | Activity [6]: <50% | Activity [7]: <50% | Activity [8]: <50%

Cc1nc2nccnc2cc1NC(=O)c1cccc(C(F)(F)F)c1
Activity [1]: <50% | Activity [2]: <50% | Activity [3]: <50% | Activity [4]: <50% | Activity [5]: <50% | Activity [6]: <50% | Activity [7]: <50% | Activity [8]: <50%

Cc1nc2nc(Oc3ccccc3)cnc2cc1NC(=O)Nc1ccccc1
Activity [1]: >50% | inhibition [9]: inactive | Activity [2]: >50% | inhibition [10]: inactive | inhibition [11]: inactive | Activity [3]: >50% | Activity [4]: >50% | IC50 [12]: 7.2 µM | inhibition [13]: inactive | inhibition [14]: inactive | Activity [5]: >50% | Activity [6]: >50% | IC50 [15]: 5.3 µM | inhibition [16]: inactive | inhibition [17]: inactive | inhibition [18]: inactive | Activity [7]: >50% | inhibition [19]: inactive | IC50 [20]: 5.1 µM | IC50 [21]: 7 µM | inhibition [22]: inactive | IC50 [23]: 9.4 µM | Activity [8]: >50% | inhibition [24]: inactive | inhibition [25]: inactive | inhibition [26]: inactive
